We go through 8 molecules from patent US20070243264A1, “Thickened Dilute Hypochlorite” (priority 2006, published 2007).

The nature of series [1]: Effect of thickeners on stability of dilute hypochlorite. The format is physicochemical. Here is the method: The amount of available halogen oxidant in the composition is determined by placing samples of the composition into about 50 milliliters of distilled water, followed by addition of about 10 milliliters of a 10 weight/weight percent solution of potassium iodide and addition of about 10 milliliters of a 10 volume percent solution of sulfuric acid, the resulting mixture being well stirred. The resulting yellow to brown solution, whose color is the result of oxidation of free iodine ion (I^−) to molecular iodine (I2), was then volumetrically titrated to an essentially colorless endpoint by addition of standardized 0.1 Molar sodium thiosulfate (Na2S2O3) titrant. Calculation then expresses the result as percent of available molecular chlorine (Cl2), that is to say assigning two equivalents per mole of titrated hypohalite oxidant. Stability results are then expressed by repeated assays over time using identically prepared samples resulting from the same composition, normalized to 100 percent representative of the starting available chlorine measured initially.

A short description of series [2]: Gel formation of hypochlorite thickened with Laponite with added buffers. To be noted: 200 ppm hypochlorite thickened with Laponite; for gel formation: acid added, amount not stated.

Read-outs that look alike come from different tables or passages of the source.

Consider `CCCCCCCCCCCCCCCC[N+](C)(C)C.[Cl-]` [trimethylC16 ammonium chloride], for which, in series [1], the “stability of dilute hypochlorite with surfactant, compared with Vangel ES” value (shortened to “stability … compared with Vangel ES”) is “less stable than Vangel ES®”. With `OB(O)O` [Boric acid], the gel entry in series [2] (buffer Wt. % 0.21, pH 8.5) is given as “Yes”; in series [2] (buffer Wt. % 0.41, pH 8.4) it was “Yes”. As to `CCCCCCCCS(=O)(=O)[O-].[Na+]` [sodium octyl sulfonate], in series [1], the “stability … compared with Vangel ES” value is “less stable than Vangel ES®”. Consider `Cl` [hydrochloric acid], for which the gel formation entry in series [2] was “Gels”. In the case of `O=C(O)CCC(=O)O` [Succinic acid], the gel result is on record as “Yes” in series [2] (buffer Wt. % 0.01, pH 9.2) and “Viscous liquid” in series [2] (buffer Wt. % 0.04, pH 8.2).

Turning to sodium alkylbenzenesulfonate, in series [1], the “stability … compared with Vangel ES” value is “less stable than Vangel ES®”.

Turning to `CC(=O)O` [acetic acid], in series [2], the gel formation result was “Gels”. In the case of `CCCCCCCCCCCCOS(=O)(=O)[O-].[Na+]` [sodium lauryl sulfate], the “stability … compared with Vangel ES” value in series [1] (comparison with thickeners of Table 4) is recorded as “less stable than Vangel ES®”.
